Results on one compound are retold here after BindingDB's records for patent US11739093 (Revolution Medicines, 2023).

Structures are written as SMILES. pIC50: −log10 of the molar value.

For this assay, the target named is T1, Tyrosine-protein phosphatase non-receptor type 11 (Homo sapiens, UniProt Q06124).
T1 sequence (Q06124 whole entry): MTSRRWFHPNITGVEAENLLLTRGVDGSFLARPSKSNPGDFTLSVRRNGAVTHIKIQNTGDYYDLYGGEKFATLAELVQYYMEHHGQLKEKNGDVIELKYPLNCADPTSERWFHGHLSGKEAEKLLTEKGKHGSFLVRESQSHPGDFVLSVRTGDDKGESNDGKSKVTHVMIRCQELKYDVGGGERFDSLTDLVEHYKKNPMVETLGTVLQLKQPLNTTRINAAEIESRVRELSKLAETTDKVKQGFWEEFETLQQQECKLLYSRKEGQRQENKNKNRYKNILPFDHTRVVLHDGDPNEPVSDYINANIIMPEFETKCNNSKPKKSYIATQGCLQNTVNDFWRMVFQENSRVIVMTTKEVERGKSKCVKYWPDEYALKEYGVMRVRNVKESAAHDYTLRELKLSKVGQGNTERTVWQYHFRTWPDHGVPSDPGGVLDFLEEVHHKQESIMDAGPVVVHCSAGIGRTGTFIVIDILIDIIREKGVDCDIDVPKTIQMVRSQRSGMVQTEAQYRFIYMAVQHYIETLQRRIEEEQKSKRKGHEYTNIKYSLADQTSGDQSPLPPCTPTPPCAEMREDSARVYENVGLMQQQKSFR
Briefly: SHP2 Allosteric Inhibition Assay. The protocol: The phosphatase reactions were performed at room temperature in 96-well black polystyrene plate, flat bottom, non-binding surface (Corning, Cat #3650) using a final reaction volume of 100 μL and the following assay buffer conditions: 50 mM HEPES, pH 7.2, 100 mM NaCl, 0.5 mM EDTA, 0.05% P-20, 1 mM DTT. The inhibition of SHP2 by compounds of the disclosure (concentrations varying from 0.00005-10 μM) was monitored using an assay in which 0.2 nM of SHP2 was incubated with 0.5 μM of Activating Peptide 1 (sequence: H2 N-LN(pY)IDLDLV(dPEG8)LST(pY)ASINFQK-amide) or Activating Peptide 2 (sequence: H2 N-LN(pY)AQLWHA(dPEG8)LTI(pY)ATIRRF-amide). After 30-60- minutes incubation at 25° C., the surrogate substrate DiFMUP (Invitrogen, Cat #D6567) was added to the reaction and activity was determined by a kinetic read using a microplate reader (Envision, Perkin-Elmer or Spectramax M5, Molecular Devices). The excitation and emission wavelengths were 340 nm and 450 nm, respectively. Initial rates were determined from a linear fit of the data, and the inhibitor dose response curves were analyzed using normalized IC50 regression curve fitting with control-based normalization.

The compound `Cc1nc(N2CCC3(CC2)CO[C@@H](C)[C@H]3N)c2ccnn2c1Sc1ccnc(N)c1Cl` [US11739093, Compound 3] had a pIC50 of 7.47.
